The subject of the test is L1210 leukemia ip in BDF1 mice, survival T/C. Put plainly: NCI In Vivo Anticancer Drug Screen. Data for tumor model L1210 Leukemia (intraperitoneal) in B6D2F1 (BDF1) mice. As to conditions: endpoint: mean survival time, higher = longer survival. Put shortly:
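Mice bearing the transplanted tumor received compound or vehicle. Survival of the treated group was divided by that of the vehicle-treated control group to give the ratio.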

[1] abbreviates: dose: 100.0 mg/kg/injection, schedule: Q04DX002 (ip), vehicle: saline.
[2] abbreviates: dose: 200.0 mg/kg/injection, schedule: Q04DX002 (ip), vehicle: saline.
Setting [3] is: dose: 400.0 mg/kg/injection, schedule: Q04DX002 (ip), vehicle: saline.
The mark [4] stands for this setting: dose: 100.0 mg/kg/injection, schedule: Q04DX002 (ip), vehicle: saline with Tween-80.
Where [5] appears, read: dose: 50.0 mg/kg/injection, schedule: Q04DX003 (ip), vehicle: saline.
[6] abbreviates: dose: 100.0 mg/kg/injection, schedule: Q04DX003 (ip), vehicle: saline with Tween-80.
Setting [7] is: dose: 100.0 mg/kg/injection, schedule: Q04DX003 (ip), vehicle: saline.
[8] abbreviates: dose: 100.0 mg/kg/injection, schedule: Q01DX009 (ip), vehicle: saline.
The mark [9] stands for this setting: dose: 200.0 mg/kg/injection, schedule: Q01DX009 (ip), vehicle: saline.
The mark [10] stands for this setting: dose: 400.0 mg/kg/injection, schedule: Q01DX009 (ip), vehicle: saline.
Where [11] appears, read: dose: 100.0 mg/kg/injection, schedule: Q04DX003 (ip), vehicle: Klucel (hydroxypropylcellulose) (HPC).
[12] abbreviates: dose: 200.0 mg/kg/injection, schedule: Q04DX003 (ip), vehicle: Klucel (hydroxypropylcellulose) (HPC).
Where [13] appears, read: dose: 400.0 mg/kg/injection, schedule: Q04DX003 (ip), vehicle: Klucel (hydroxypropylcellulose) (HPC).
[14] abbreviates: dose: 200.0 mg/kg/injection, schedule: Q04DX003 (ip), vehicle: saline.
The mark [15] stands for this setting: dose: 400.0 mg/kg/injection, schedule: Q04DX003 (ip), vehicle: saline with Tween-80.
[16] abbreviates: dose: 200.0 mg/kg/injection, schedule: Q04DX003 (ip), vehicle: saline with Tween-80.

Toxic doses and inconclusive results are not listed.

As for `OC(CN1CC1)C(O)CN1CC1` (stereo not given), the T/C is 114 % of control (dose: 0.06 mg/kg/injection, schedule: Q01DX Z (ip), vehicle: carboxymethylcellulose (CMC)); 100 % of control (dose: 0.4 mg/kg/injection, schedule: Q01DX Z (ip), vehicle: saline); 200 % of control (dose: 0.5 mg/kg/injection, schedule: Q01DX Z (ip), vehicle: carboxymethylcellulose (CMC)); 100 % of control (dose: 0.6 mg/kg/injection, schedule: Q01DX Z (ip), vehicle: saline); 95 % of control (dose: 0.9 mg/kg/injection, schedule: Q01DX Z (ip), vehicle: saline); 90 % of control (dose: 1.0 mg/kg/injection, schedule: Q01DX Z (ip), vehicle: carboxymethylcellulose (CMC)). Moreover, where the note is “dose: 1.3 mg/kg/injection, schedule: Q01DX Z (ip), vehicle: saline”, the T/C was 95 % of control.
In the case of `CCC1(c2ccccc2)OC1C(=O)OCC(C)C` (stereo not given), the T/C is 112 % of control under setting [1], 97 % of control under setting [2] and 101 % of control under setting [3].
As to `CCCCCCCCCCCCCCCC[N+](C)(C)C1=C([O-])C(=O)N(c2ccc(Cl)c(Cl)c2)C1=O`, the T/C by setting is: (dose: 50.0 mg/kg/injection, schedule: Q04DX002 (ip), vehicle: saline with Tween-80) 94 % of control; under setting [4], 94 % of control.
As to `CCN(CC)CCN1C(=O)[C@H]2CC=CC[C@H]2C1=O`, the T/C reads like this: (dose: 44.0 mg/kg/injection, schedule: Q01DX Z (ip), vehicle: saline) 111 % of control; (dose: 66.0 mg/kg/injection, schedule: Q01DX Z (ip), vehicle: saline) 100 % of control; (dose: 100.0 mg/kg/injection, schedule: Q01DX Z (ip), vehicle: saline) 98 % of control.
For the compound `CCN(CCO)Cc1cccc2ccccc12`, the T/C (dose: 25.0 mg/kg/injection, schedule: Q04DX003 (ip), vehicle: saline) was 97 % of control; the T/C under setting [5] is 101 % of control; the T/C under setting [6] is 98 % of control; the T/C under setting [7] was 101 % of control.
With `O=C1OC(c2ccc([N+](=O)[O-])cc2)=N/C1=C\c1ccc(Cl)cc1`, the T/C is, setting by setting: under setting [8], 94 % of control; under setting [1], 89 % of control; under setting [9], 91 % of control; under setting [2], 92 % of control; under setting [10], 91 % of control; under setting [3], 92 % of control.
Turning to `CCN(CC)C(=S)SC(C)C(=O)OC` (stereo not given), the T/C is 96 % of control (dose: 100.0 mg/kg/injection, schedule: Q04DX002 (ip), vehicle: Klucel (hydroxypropylcellulose) (HPC)); 107 % of control (dose: 200.0 mg/kg/injection, schedule: Q04DX002 (ip), vehicle: Klucel (hydroxypropylcellulose) (HPC)); 103 % of control (dose: 400.0 mg/kg/injection, schedule: Q04DX002 (ip), vehicle: Klucel (hydroxypropylcellulose) (HPC)).
In the case of `N#CC(C#N)=Cc1ccccc1[N+](=O)[O-]`, the T/C by setting is: (dose: 25.0 mg/kg/injection, schedule: Q01DX Z (ip), vehicle: methylcellulose (MC)) 98 % of control; (dose: 50.0 mg/kg/injection, schedule: Q01DX Z (ip), vehicle: methylcellulose (MC)) 88 % of control.
In the case of `Cc1cc2nc(CO)[nH]c2cc1C`, the T/C by setting is: (dose: 100.0 mg/kg/injection, schedule: Q01DX009 (ip), vehicle: Klucel (hydroxypropylcellulose) (HPC)) 94 % of control; under setting [11], 95 % of control; (dose: 200.0 mg/kg/injection, schedule: Q01DX009 (ip), vehicle: Klucel (hydroxypropylcellulose) (HPC)) 96 % of control; under setting [12], 93 % of control; (dose: 400.0 mg/kg/injection, schedule: Q01DX009 (ip), vehicle: Klucel (hydroxypropylcellulose) (HPC)) 98 % of control; under setting [13], 92 % of control.
`CS(=O)(=O)O`: the T/C reads like this: under setting [8], 102 % of control; under setting [7], 108 % of control; under setting [9], 93 % of control; under setting [14], 98 % of control; under setting [10], 100 % of control; (dose: 400.0 mg/kg/injection, schedule: Q04DX003 (ip), vehicle: saline) 109 % of control.
For the compound `CN(C)c1ccc(N=Nc2nccs2)cc1`, the T/C was 91 % of control under setting [6] and 88 % of control under setting [15].
As for `COC(=O)NCC1OC(n2cnc3c(N)ncnc32)C(O)C1O` (stereo not given), the T/C is 92 % of control (dose: 100.0 mg/kg/injection, schedule: Q01DX005 (ip), vehicle: saline) and 94 % of control (dose: 200.0 mg/kg/injection, schedule: Q01DX005 (ip), vehicle: saline).
As to `OC(c1cc2c3c(c1)CCCN3CCC2)(C(F)(F)F)C(F)(F)F`, the T/C by setting is: under setting [6], 92 % of control; under setting [16], 96 % of control.
With `Oc1ccc(CNc2nn[nH]n2)cc1`, the T/C under setting [6] is 94 % of control, the T/C under setting [16] was 96 % of control and the T/C under setting [15] was 96 % of control.
As for `COC1OC(COC(=O)c2ccc([N+](=O)[O-])cc2)C2SC12` (stereo not given), the T/C is, setting by setting: under setting [11], 104 % of control; under setting [12], 97 % of control; under setting [13], 97 % of control.
Consider `Cc1cccc(C)c1NC(=S)NNC(=O)c1ccncc1`, for which the T/C reads like this: (dose: 100.0 mg/kg/injection, schedule: Q01DX009 (ip), vehicle: saline with Tween-80) 97 % of control; under setting [4], 101 % of control; (dose: 200.0 mg/kg/injection, schedule: Q04DX002 (ip), vehicle: saline with Tween-80) 96 % of control; (dose: 400.0 mg/kg/injection, schedule: Q01DX009 (ip), vehicle: saline with Tween-80) 100 % of control; (dose: 400.0 mg/kg/injection, schedule: Q04DX002 (ip), vehicle: saline with Tween-80) 101 % of control.
Take `COC1(c2ccccc2)OC12CC1CCC2C1` (stereo not given): the T/C is 98 % of control under setting [5]; 95 % of control (dose: 100.0 mg/kg/injection, schedule: Q01DX001 (ip), vehicle: saline); 100 % of control under setting [7]; 101 % of control (dose: 200.0 mg/kg/injection, schedule: Q01DX001 (ip), vehicle: saline); 100 % of control under setting [14]; 95 % of control (dose: 400.0 mg/kg/injection, schedule: Q01DX001 (ip), vehicle: saline).

For the origin of these results see PubChem BioAssay AID248 (DTP/NCI, 2004).
